Experimental data as given in patent US20250032443A1, “TREATMENT OF MYOTONIC DISORDERS” (University of Rochester, priority 2021, published 2025).

Experiments:
myotonic WT EDL = assay: Myotonia, ex vivo EDL incubated with 9-AC; parameters: species or system mouse
myotonic Cav1.1^Δe29 EDL = assay: Myotonia, ex vivo EDL incubated with 9-AC; parameters: species or system mouse
[1] = system: Cav1.1^Δe29+9-AC EDL muscle; assay: Transient weakness, ex vivo EDL made myotonic with 9-AC; parameters: initial force generation drop: dose or concentration left out as unconfirmed; details: for transient weakness: 20-wk mice
[2] = system: non-myotonic and myotonic WT and Cav1.1^Δe29 mouse muscle; assay: Peak contraction force of non-myotonic and myotonic ex vivo EDL, drug in bath; details: 5 mM and 20 mM verapamil in bath, with or without 100 mM 9-AC; 20-wk mice
WT+9-AC EDL muscle = assay: Transient weakness, ex vivo EDL made myotonic with 9-AC; details: in bath, 20-wk mice
[3] = system: Cav1.1^Δe29/ClC-1^−/− mice; assay: Body weight measurements in Cav1.1^Δe29/ClC-1^−/− mice; assay type: in vivo, mouse
Protocol: Mice were provided food cups immediately after weaning, and food was changed daily. No other food source was given, but water was provided and changed weekly along with cages.
Body weight of the mice was measured every other day following weaning to the end of terminal experimentation. For statistical analysis, two-way ANOVA was performed on the average of each week's measurements. Percent body weight change at 10 weeks was determined with the first weight measurement taken post-weaning, and the body weight reached at 10 weeks.

[4] = system: Cav1.1^Δe29/ClC-1^−/− mice; assay: Time of righting reflex in Cav1.1^Δe29/ClC-1^−/− mice; assay type: in vivo, mouse
Protocol: Mice were held in a supine position on a level surface and then released. Two persons began timing immediately after release, and timing was stopped once all four paws were down on the surface. This was repeated for a total of 10 timed righting responses with a minimum of five minutes in between each recording to avoid myotonic warm-up. Recordings less than a second were recorded as “1,” and righting was considered a failure if righting took more than 60 seconds. If failure was reached, no further recordings were measured for that mouse for that week. The two longest and two shortest recording for each mouse was removed, and the average of the middle 6 recordings were used for analysis. Two-way ANOVA on the week-to-week results and one-way ANOAV with multiple comparisons for the timepoint data (10-week and 20-week) were performed.

[5] = system: Cav1.1^Δe29/ClC-1^−/− mice; assay: Whole body plethysmography in Cav1.1^Δe29/ClC-1^−/− mice; assay type: in vivo, mouse
Protocol: Whole body plethysmography (Buxco® Small Animal Whole Body Plethysmography, Data Science Internation) was used to measure respiratory function at 10 weeks (all groups) and 20 weeks (excluding untreated Cav1.1^Δe29/ClC-1^−/−). Mice were acclimated to the system for two days, with data being collected on day three. […] Average data from the 10-minute acquisition period for frequency (Breath/min) and tidal volume (mL) were analyzed for statistics by one-way ANOVA with multiple comparisons.

[6] = system: EDL muscle of Cav1.1^Δe29/ClC-1^−/− mice; assay: In vitro muscle contraction of EDL isolated from long-term orally treated mice (no drug in bath); assay type: in vivo, mouse; details: 20-weeks-of-age, amlodipine treatment
[7] = system: diaphragm strip of Cav1.1^Δe29/ClC-1^−/− mice; assay: In vitro muscle contraction of diaphragm strips isolated from long-term orally treated mice (no drug in bath); assay type: in vivo, mouse
[8] = system: WT and Cav1.1^Δe29 EDLs (no 9AC); assay: Myotonia protocol, ex vivo EDL without 9-AC; parameters: species or system mouse; details: 10 mM amlodipine in the bath
[9] = 5 mg/kg/day amlodipine vs untreated
[10] = 20-weeks of age, amlodipine treated vs WT

COC(=O)C1=C(C)NC(C)=C(C(=O)OC)C1c1ccccc1[N+](=O)[O-] [nifedipine, 3,5-dimethyl 2,6-dimethyl-4-(2-nitrophenyl)-1,4-dihydropyridine-3,5-dicarboxylate]
myotonia (myotonic WT EDL; 75 nM nifedipine): reduced myotonia | myotonia (myotonic Cav1.1^Δe29 EDL; 75 nM nifedipine): reduction in the myotonia | initial drop in force generation between the first and second tetani ([1]; 10 mM nifedipine): improved | transient weakness ([1]; 10 mM nifedipine in the bath): significant improvement in transient weakness

COc1ccc(CCN(C)CCCC(C#N)(c2ccc(OC)c(OC)c2)C(C)C)cc1OC (racemic) [verapamil, (RS)-2-(3,4-Dimethoxyphenyl)-5-{[2-(3,4-dimethoxyphenyl)ethyl]-(methyl)amino}-2-prop-2-ylpentanenitrile]
peak contraction force [2]: does not reduce peak contraction force | transient weakness (WT+9-AC EDL muscle; 5 mM verapamil): improve transient weakness | transient weakness (WT+9-AC EDL muscle; 20 mM verapamil): improve transient weakness | transient weakness ([1]; 5 mM verapamil, in bath): improve transient weakness | transient weakness ([1]; 20 um verapamil, in bath): significant and robust

CCOC(=O)C1=C(COCCN)NC(C)=C(C(=O)OC)C1c1ccccc1Cl (racemic) [amlodipine, (RS)-3-ethyl 5-methyl 2-[(2-aminoethoxy)methyl]-4-(2-chlorophenyl)-6-methyl-1,4-dihydropyridine-3,5-dicarboxylate]
percent body weight change compared to WT ([3]; 5 mg/kg/day amlodipine vs WT): not significantly different | percent body weight change from weaning at 10 weeks [3, 9]: significant improvement | time of righting reflex, week-to-week, compared to ClC-1^−/− alone mice ([4]; 5 mg/kg/day amlodipine): no significant difference in righting | average time of righting reflex compared to WT mice ([4]; 5 mg/kg/day amlodipine vs WT): not a significant difference in time of righting | average time of righting reflex at 10- and 20-week of age [4, 9]: significantly improve time of righting | time of righting reflex, weekly [4, 9]: significantly improves time of righting | minute ventilation ([5]; 10-week, amlodipine treated vs untreated): not improved | frequency of respiration ([5]; 10-weeks, 5 mg/kg/day amlodipine): reduction in the frequency | frequency of respiration compared to WT [5, 10]: not significantly different | minute ventilation compared to WT [5, 10]: significant reduction | respiratory function overall ([5]; amlodipine treatment): moderately impacted | muscle function and muscle force generation in EDL [6]: not a significant impact | muscle function and muscle force generation in diaphragm ([7]; 20-weeks-of-age, amlodipine treatment): not a significant impact | diaphragm force reduction at 150 Hz and in frequency dependence protocol, compared to ClC-1^−/− alone mice ([7]; 20-wk, amlodipine treated): comparable | diaphragm strip force generation compared to WT diaphragm ([7]; 20-wk, amlodipine treated vs WT): force generation reduction | myotonia (myotonic WT EDL; 10 mM amlodipine): reduced myotonia | myotonia (myotonic Cav1.1^Δe29 EDL; 10 mM amlodipine): reduction in the myotonia | myotonia, difference between WT and Cav1.1^Δe29, first tetanus (myotonic Cav1.1^Δe29 EDL; 10 mM amlodipine): significant difference | myotonia, difference between WT and Cav1.1^Δe29, following tetani (myotonic Cav1.1^Δe29 EDL; 10 mM amlodipine, 100 mM 9-AC): no difference | myotonia (integration normalized to specific force) without 9AC [8]: has no affect | initial force generation drop ([1]; 10 mm amlodipine in the bath): improved | transient weakness ([1]; 10 mm amlodipine in the bath): improvement to transient weakness
